Key:
Assay in all cases: relative viability (nuclei count vs DMSO), 5 days (fraction); higher = more cells survive
BX 795 + Palbociclib = compound: O=C(NCCCNc1nc(Nc2cccc(NC(=O)N3CCCC3)c2)ncc1I)c1cccs1 [BX 795] + CC(=O)c1c(C)c2cnc(Nc3ccc(N4CCNCC4)cn3)nc2n(C2CCCC2)c1=O [Palbociclib] (partner 0.5 µM)
Outline: (§1)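 Lung cancer cell lines were pin-tool dosed in 1536-well plates on the day after seeding, with either a lone drug or a fixed anchor-drug dose plus five library-drug doses (not always all listed) in √10 steps. Nuclei were counted on 4× images after 5 days. Relative viability is the ratio of treated-well to vehicle-well nuclei counts, with each value a median of duplicate plates.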

BX 795 + AZD7762 = compound: O=C(NCCCNc1nc(Nc2cccc(NC(=O)N3CCCC3)c2)ncc1I)c1cccs1 [BX 795] + NC(=O)Nc1cc(-c2cccc(F)c2)sc1C(=O)N[C@H]1CCCNC1 [AZD7762] (partner 0.2 µM)
Outline: as §1

BX 795 + Pemetrexed = compound: O=C(NCCCNc1nc(Nc2cccc(NC(=O)N3CCCC3)c2)ncc1I)c1cccs1 [BX 795] + Nc1nc2[nH]cc(CCc3ccc(C(=O)N[C@@H](CCC(=O)O)C(=O)O)cc3)c2c(=O)[nH]1 [Pemetrexed] (partner 0.2 µM)
Outline: as §1

BX 795 + Crizotinib = compound: O=C(NCCCNc1nc(Nc2cccc(NC(=O)N3CCCC3)c2)ncc1I)c1cccs1 [BX 795] + C[C@@H](Oc1cc(-c2cnn(C3CCNCC3)c2)cnc1N)c1c(Cl)ccc(F)c1Cl [Crizotinib] (partner 1 µM)
Outline: as §1

BX 795 + Linsitinib = compound: O=C(NCCCNc1nc(Nc2cccc(NC(=O)N3CCCC3)c2)ncc1I)c1cccs1 [BX 795] + C[C@]1(O)C[C@@H](c2nc(-c3ccc4ccc(-c5ccccc5)nc4c3)c3c(N)nccn32)C1 [Linsitinib] (partner 1 µM)
Outline: as §1

| Cell Line | relative viability (BX 795 + Palbociclib; first compound 0.04 µM) | relative viability (BX 795 + Palbociclib; first compound 0.1265 µM) | relative viability (BX 795 + Palbociclib; first compound 0.4 µM) | relative viability (BX 795 + Palbociclib; first compound 1.265 µM) | relative viability (BX 795 + AZD7762; first compound 0.04 µM) | relative viability (BX 795 + AZD7762; first compound 0.1265 µM) | relative viability (BX 795 + AZD7762; first compound 0.4 µM) | relative viability (BX 795 + AZD7762; first compound 1.265 µM) | relative viability (BX 795 + Pemetrexed; first compound 0.04 µM) | relative viability (BX 795 + Pemetrexed; first compound 0.1265 µM) | relative viability (BX 795 + Pemetrexed; first compound 0.4 µM) | relative viability (BX 795 + Pemetrexed; first compound 1.265 µM) | relative viability (BX 795 + Crizotinib; first compound 0.04 µM) | relative viability (BX 795 + Crizotinib; first compound 0.1265 µM) | relative viability (BX 795 + Crizotinib; first compound 0.4 µM) | relative viability (BX 795 + Crizotinib; first compound 1.265 µM) | relative viability (BX 795 + Linsitinib; first compound 0.04 µM) | relative viability (BX 795 + Linsitinib; first compound 0.1265 µM) | relative viability (BX 795 + Linsitinib; first compound 0.4 µM) | relative viability (BX 795 + Linsitinib; first compound 1.265 µM) |
| --- | --- | --- | --- | --- | --- | --- | --- | --- | --- | --- | --- | --- | --- | --- | --- | --- | --- | --- | --- | --- |
| NCI-H322M | 0.486 | 0.468 | 0.571 | 0.587 | 0.62 | 0.532 | 0.555 | 0.753 | 0.591 | 0.606 | 0.603 | 0.672 | 0.906 | 0.959 | 0.711 | 0.912 | 0.984 | 1.01 | 1.02 | 0.967 |
| NCI-H358 | 0.132 | 0.134 | 0.131 | 0.107 | 0.518 | 0.556 | 0.372 | 0.433 | 0.167 | 0.168 | 0.134 | 0.123 | 0.652 | 0.38 | 0.367 | 0.17 | 0.679 | 0.705 | 0.601 | 0.228 |
| NCI-H441 | 0.22 | 0.204 | 0.243 | 0.184 | 1.23 | 1.21 | 1.07 | 0.866 | 0.255 | 0.272 | 0.281 | 0.267 | 0.874 | 0.695 | 0.878 | 0.508 | 0.667 | 0.528 | 0.854 | 0.326 |
| NCI-H460 | 0.163 | 0.156 | 0.0784 | 0.149 | 0.587 | 0.616 | 0.664 | 0.767 | 0.0535 | 0.0622 | 0.0597 | 0.0576 | 0.859 | 1.17 | 0.684 | 0.192 | 0.708 | 1.01 | 0.605 | 0.281 |
| NCI-H647 | 0.425 | 0.365 | 0.384 | 0.3 | 0.554 | 0.493 | 0.43 | 0.363 | 0.163 | 0.186 | 0.106 | 0.106 | 1.08 | 1.17 | 0.955 | 0.242 | 1.25 | 1.16 | 1.28 | 0.601 |
| NCI-H650 | 0.346 | 0.343 | 0.319 | 0.312 | 0.843 | 0.908 | 0.701 | 1.05 | 0.889 | 1.04 | 0.866 | 0.809 | 0.712 | 0.771 | 0.421 | 0.619 | 0.752 | 0.739 | 1.03 | 0.549 |
| NCI-H838 | 0.231 | 0.234 | 0.197 | 0.172 | 0.94 | 0.981 | 0.786 | 0.824 | 0.254 | 0.249 | 0.189 | 0.184 | 0.781 | 0.689 | 0.628 | 0.356 | 0.936 | 0.986 | 0.881 | 0.331 |
| NCI-H1355 | 0.418 | 0.346 | 0.388 | 0.393 | 0.784 | 0.607 | 0.734 | 0.69 | 0.798 | 0.977 | 1.09 | 1.01 | 1.03 | 0.937 | 1.1 | 0.961 | 0.768 | 0.869 | 0.811 | 0.65 |
| NCI-H1437 | 0.336 | 0.34 | 0.344 | 0.358 | 1.14 | 1.14 | 0.888 | 1.18 | 0.277 | 0.305 | 0.257 | 0.321 | 0.871 | 0.96 | 1.03 | 0.562 | 1.05 | 1.07 | 0.992 | 0.769 |
| NCI-H1651 | 0.566 | 0.534 | 0.538 | 0.541 | 0.469 | 0.457 | 0.463 | 0.511 | 0.602 | 0.571 | 0.409 | 0.596 | 0.945 | 0.948 | 0.852 | 0.853 | 0.999 | 1.1 | 1.02 | 0.831 |
| NCI-H1666 | 0.536 | 0.641 | 0.7 | 0.657 | 0.895 | 0.784 | 0.838 | 0.832 | 0.836 | 0.83 | 0.697 | 0.79 | 1.16 | 1.05 | 1.13 | 0.769 | 0.777 | 1.07 | 1.05 | 0.74 |
| NCI-H1734 | 0.404 | 0.377 | 0.35 | 0.354 | 0.54 | 0.562 | 0.51 | 0.444 | 0.348 | 0.421 | 0.33 | 0.398 | 0.765 | 0.727 | 0.64 | 0.432 | 0.915 | 0.968 | 0.861 | 0.761 |
| NCI-H1755 | 0.493 | 0.43 | 0.458 | 0.441 | 0.465 | 0.467 | 0.374 | 0.386 | 0.42 | 0.44 | 0.381 | 0.447 | 0.935 | 0.908 | 0.767 | 0.516 | 1.04 | 0.93 | 1.01 | 0.689 |
| NCI-H1792 | 0.724 | 0.633 | 0.643 | 0.613 | 0.616 | – | 0.696 | 0.576 | 0.918 | – | 0.882 | 0.533 | 1.01 | 1.08 | 1.09 | 0.892 | 0.559 | 0.673 | 0.461 | 0.424 |
| NCI-H1915 | 0.63 | 0.501 | 0.637 | 0.485 | 0.651 | 0.658 | 0.666 | 0.695 | 0.347 | 0.458 | 0.304 | 0.442 | 0.904 | 0.95 | 0.85 | 0.765 | 1.16 | 1.09 | 1.08 | 1.02 |
| NCI-H1944 | 0.381 | 0.33 | 0.411 | 0.325 | 0.531 | 0.555 | 0.48 | 0.531 | 0.616 | 0.577 | 0.41 | 0.606 | 1.18 | 1.03 | 1.09 | 0.741 | 1.25 | 1.36 | 1.14 | 1.1 |
| NCI-H1975 | 0.758 | 0.712 | 0.509 | 0.526 | 0.705 | 0.792 | 0.67 | 0.564 | 0.272 | 0.299 | 0.247 | 0.297 | 0.99 | 1.04 | 0.879 | 0.643 | 0.83 | 1.04 | 0.977 | 0.659 |
| NCI-H1993 | 0.67 | 0.744 | 0.671 | 0.642 | 0.759 | 0.795 | 0.589 | 0.809 | 0.624 | 0.616 | 0.623 | 0.585 | 0.888 | 0.891 | 0.795 | 0.665 | 0.628 | 0.732 | 0.713 | 0.696 |
| NCI-H2085 | 0.466 | 0.465 | 0.515 | 0.51 | 0.895 | 0.932 | 0.947 | 0.957 | 0.848 | 0.865 | 0.919 | 0.899 | 0.911 | 0.841 | 0.843 | 0.732 | 0.883 | 0.961 | 1.04 | 0.737 |
| NCI-H2087 | 0.219 | 0.248 | 0.322 | 0.209 | 1.26 | 1.33 | 1.32 | 1.13 | 0.695 | 0.655 | 0.696 | 0.654 | 0.745 | 0.963 | 0.868 | 0.516 | 1.1 | 0.924 | 1.06 | 0.647 |
| NCI-H2126 | 0.387 | 0.329 | 0.35 | 0.34 | 1.02 | 1.01 | 1.01 | 0.983 | 0.713 | 0.692 | 0.457 | 0.666 | 1.04 | 0.984 | 1.09 | 0.945 | 0.714 | 0.656 | 0.757 | 0.701 |
| NCI-H2347 | 0.496 | 0.417 | 0.523 | 0.496 | 0.806 | 0.838 | 0.677 | 0.578 | 0.424 | 0.375 | 0.434 | 0.434 | 0.8 | 0.616 | 0.801 | 0.545 | 1.09 | 0.962 | 1.17 | 0.942 |
| NCI-H2405 | 0.535 | 0.537 | 0.384 | 0.566 | 0.714 | 0.678 | 0.664 | 0.573 | 1.06 | 1.02 | 0.996 | 1.05 | 0.806 | 0.842 | 0.635 | 0.794 | 0.871 | 0.828 | 0.678 | 0.694 |
| NCI-H3122 | 0.182 | 0.221 | 0.208 | 0.226 | 1.06 | 1.07 | 0.937 | 1.03 | 0.172 | 0.207 | 0.141 | 0.182 | 0.293 | 0.266 | 0.282 | 0.296 | 0.989 | 1.02 | 1.08 | 1.1 |
| PC-3 [JPC-3] | 0.539 | – | 0.57 | 0.543 | 0.809 | – | 0.685 | 0.802 | 1.04 | – | 1.16 | 1.02 | 1.04 | 0.993 | 1.06 | 0.946 | 1.02 | 1.02 | 0.979 | 0.976 |
| PC-14 | 0.516 | 0.498 | 0.485 | 0.318 | 0.369 | 0.383 | 0.335 | 0.282 | 0.0872 | 0.135 | 0.0536 | 0.115 | 0.879 | 0.919 | 0.851 | 0.602 | 0.923 | 0.917 | 0.879 | 0.75 |
| RERF-LC-KJ | – | 1.08 | 1.1 | 0.895 | 1.16 | 1.05 | 1.11 | 0.86 | – | 0.444 | 0.443 | 0.467 | 0.86 | 0.767 | 0.699 | 0.669 | 0.881 | 0.891 | 0.94 | 0.874 |

From the supplement of paper PMC10307832
